For assay [1], the target named is Metallo-beta-lactamase type 2 (Bacteria, UniProt C7C422). Briefly: Inhibition of recombinant NDM-1 (unknown origin) expressed in Escherichia coli BL21 (DE3) cells using meropenem as substrate by spectrometric analysis.
Assay [2] in a line: Inhibition of recombinant serine beta lactamase OXA-48 (unknown origin) expressed in Escherichia coli BL21 (DE3) cells using meropenem as substrate by spectrometric analysis. Set-up: species or system Bacteria.
Assay [3] can be described thus: Inhibition of recombinant serine beta lactamase KPC-2 (unknown origin) expressed in Escherichia coli BL21 (DE3) cells using meropenem as substrate by spectrometric analysis. Set-up: species or system Bacteria.
Assay [4] deals with Metallo-beta-lactamase type 2 (Bacteria) (UniProt C7C422). Briefly: Inhibition of recombinant NDM-1 (unknown origin) expressed in Escherichia coli BL21 (DE3) cells using meropenem as substrate at 20 uM by spectrometric analysis relative to control.
The subject of assay [5] is Escherichia coli. Put plainly: Synergistic antibacterial activity against Escherichia coli BL21 (DE3) harboring NDM-1 assessed as meropenem MIC at 64 microg/ml measured after 16 hrs by CLSI protocol based broth microdilution method (reference value: 256 microg/ml). The class given is functional. The settings on record: dose 64 µg/ml. Background: Broth dilution looks for growth in wells or tubes with falling amounts of substance.

Assay [6] deals with Bacteria. Put plainly: Inhibition of recombinant metallo-beta-lactamase ImiS (unknown origin) expressed in Escherichia coli BL21 (DE3) cells using meropenem as substrate at 20 uM by spectrometric analysis relative to control.
In assay [7] the test system is Escherichia coli. Briefly: Synergistic antibacterial activity against Escherichia coli BL21 (DE3) harboring serine beta lactamase OXA-48 assessed as meropenem MIC at 64 microg/ml measured after 16 hrs by CLSI protocol based broth microdilution method (reference value: 1 microg/ml). It is filed as functional. The settings on record: dose 64 µg/ml.
The subject of assay [8] is Escherichia coli. Put plainly: Synergistic antibacterial activity against Escherichia coli BL21 (DE3) harboring metallo-beta-lactamase IMP-1 assessed as meropenem MIC at 64 microg/ml measured after 16 hrs by CLSI protocol based broth microdilution method (reference value: 64 microg/ml). The class given is functional. The conditions noted are these: dose 64 µg/ml.
A short description of assay [9]: Inhibition of recombinant metallo-beta-lactamase IMP-1 (unknown origin) expressed in Escherichia coli BL21 (DE3) cells using meropenem as substrate by spectrometric analysis. Set-up: species or system Bacteria.
Assay [10] relates to Bacteria. Put plainly: Inhibition of recombinant metallo-beta-lactamase L-1 (unknown origin) expressed in Escherichia coli BL21 (DE3) cells using cefazolin as substrate at 20 uM by spectrometric analysis relative to control.
The test system of assay [11] is Escherichia coli. Briefly: Synergistic antibacterial activity against Escherichia coli BL21 (DE3) harboring serine beta lactamase KPC-2 assessed as meropenem MIC at 64 microg/ml measured after 16 hrs by CLSI protocol based broth microdilution method (reference value: 16 microg/ml). The class given is functional. The settings on record: dose 64 µg/ml.
Assay [12] concerns Bacteria. Put plainly: Inhibition of recombinant metallo-beta-lactamase IMP-1 (unknown origin) expressed in Escherichia coli BL21 (DE3) cells using cefazolin as substrate at 20 uM by spectrometric analysis relative to control.
The test system of assay [13] is Bacteria. Briefly: Inhibition of recombinant serine beta lactamase KPC-2 (unknown origin) expressed in Escherichia coli BL21 (DE3) cells using meropenem as substrate at 20 uM by spectrometric analysis relative to control.
Assay [14] has as its system Escherichia coli. Briefly: Synergistic antibacterial activity against Escherichia coli BL21 (DE3) harboring metallo-beta lactamase IMP-1 assessed as fold decrease in meropenem MIC at 64 microg/ml measured after 16 hrs by CLSI protocol based broth microdilution method. The class given is functional. The conditions noted are these: dose 64 µg/ml.
Assay [15] has as its system Bacteria. Briefly: Inhibition of recombinant serine beta lactamase OXA-48 (unknown origin) expressed in Escherichia coli BL21 (DE3) cells using meropenem as substrate at 20 uM by spectrometric analysis relative to control.
In assay [16] the test system is Escherichia coli. Briefly: Synergistic antibacterial activity against Escherichia coli BL21 (DE3) harboring NDM-1 assessed as fold decrease in meropenem MIC at 64 microg/ml measured after 16 hrs by CLSI protocol based broth microdilution method. It is filed as functional. The conditions noted are these: dose 64 µg/ml.
Assay [17] relates to Escherichia coli. Put plainly: Synergistic antibacterial activity against Escherichia coli BL21 (DE3) harboring serine beta lactamase KPC-2 assessed as fold decrease in meropenem MIC at 64 microg/ml measured after 16 hrs by CLSI protocol based broth microdilution method. It is filed as functional. The conditions noted are these: dose 64 µg/ml.
Assay [18] concerns Escherichia coli. Put plainly: Synergistic antibacterial activity against Escherichia coli BL21 (DE3) harboring serine beta lactamase OXA-48 assessed as fold decrease in meropenem MIC at 64 microg/ml measured after 16 hrs by CLSI protocol based broth microdilution method. It is filed as functional. The settings on record: dose 64 µg/ml.

As usually defined, the IC50 is the concentration that gives 50% inhibition. A word on the inhibition: it is how much of the control response was suppressed. What is called MIC is the smallest concentration in the dilution series that meets the test's criterion for growth inhibition.

Chain of Metallo-beta-lactamase type 2 (C7C422 whole entry): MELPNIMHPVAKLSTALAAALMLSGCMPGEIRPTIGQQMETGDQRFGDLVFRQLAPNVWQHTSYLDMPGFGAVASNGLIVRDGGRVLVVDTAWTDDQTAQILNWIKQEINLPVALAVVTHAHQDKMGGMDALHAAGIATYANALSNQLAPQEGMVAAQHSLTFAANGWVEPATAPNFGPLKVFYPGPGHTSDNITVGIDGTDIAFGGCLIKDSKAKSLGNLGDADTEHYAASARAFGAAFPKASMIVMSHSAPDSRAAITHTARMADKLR
Chain of Metallo-beta-lactamase type 2 (Bacteria) (C7C422 whole entry): as above

Regarding `O=C(OCc1ccccc1)ONC(=O)c1ccccc1`, the IC50 is 2.62 µM in assay [1], more than 50 µM in [2], more than 50 µM in assay [3] and 2.38 µM in assay [9]. Besides, the inhibition in assay [4] was more than 90%; in [6] it was less than 42%; in assay [10], less than 42%; in assay [12] it was more than 90%. For the same compound, the MIC worked out at 128 µg/mL in assay [5], 1 µg/mL in assay [7], 64 µg/mL in assay [8] and 16 µg/mL in assay [11].
As to `CC(C)COC(=O)ONC(=O)CCc1ccccc1`, the IC50 in assay [1] was found to be 6.01 µM; in assay [2], 2.74 µM; in assay [3], 4.56 µM; in assay [9], 12.4 µM. Also, the inhibition in assay [13] and in [15] was more than 90% throughout. Moreover, the MIC in assay [5] came to 128 µg/mL; in assay [7], 1 µg/mL; in assay [8], 32 µg/mL; in assay [11] it was 8 µg/mL. The “fold change (FC)” value in [14], in [16] and in [17] was 2 in each case.
For `O=C(OCc1ccccc1)ONC(=O)C1CCCCC1`, the IC50 worked out at 41.1 µM in assay [1], 6.71 µM in [2], 41.9 µM in assay [3] and 27.2 µM in [9]. Besides, the MIC in [5] was 128 µg/mL; in assay [7], 1 µg/mL; in assay [8], 64 µg/mL; in [11], 16 µg/mL.
Turning to `CC(=O)NOC(=O)OCc1ccccc1`, the IC50 in assay [1] was 3.21 µM; in assay [2] it was more than 50 µM; in assay [3], more than 50 µM; in assay [9], 2.42 µM. The inhibition in assay [4] was more than 90%; in assay [6] it was less than 42%; in [10], less than 42%; in assay [12] it was more than 90%. The minimum inhibitory concentration (MIC) came out at 64 µg/mL in [5], 1 µg/mL in assay [7], 32 µg/mL in [8] and 16 µg/mL in assay [11]. Also, the “fold change (FC)” value in [14] and in assay [16] was 2 in each case.
`CC(C)COC(=O)ONC(=O)CCCc1ccccc1`: the IC50 was 1.87 µM in assay [1], 1.03 µM in [2], 1.47 µM in assay [3] and 0.85 µM in [9]. The inhibition in [4] was more than 90%; in assay [13], more than 90%; in assay [6], less than 42%; in assay [10], less than 42%; in [15] it was more than 90%; in [12], more than 90%. Also, the MIC in [5] came out at 64 µg/mL; in assay [7] it was 0.5 µg/mL; in assay [8], 32 µg/mL; in assay [11], 8 µg/mL. The “fold change (FC)” value in [18], in [14], in assay [16] and in assay [17] was 2 in each case.
As for `O=C(CCC1CCCCC1)NOC(=O)OCc1ccccc1`, the IC50 in [1] is 1.27 µM; in assay [2], 1.99 µM; in assay [3], 0.6 µM; in assay [9] it was 6.48 µM. In addition, the inhibition in [13] and in assay [15] was more than 90% in each case. In addition, the MIC in assay [5] is 64 µg/mL; in assay [7], 0.5 µg/mL; in assay [8] it was 32 µg/mL; in assay [11], 16 µg/mL. The “fold change (FC)” value in assay [18], in assay [14] and in assay [16] was 2 in each case.
Consider `CCCCCOC(=O)ONC(=O)CCc1ccccc1`, for which the IC50 in [1] was 4.72 µM; in assay [2], 9.08 µM; in assay [3] it was 4.51 µM; in assay [9], 1.73 µM. The inhibition is more than 90% in [4], less than 42% in assay [6], less than 42% in [10] and more than 90% in [12]. The MIC in [5] turned out to be 64 µg/mL; in assay [7], 1 µg/mL; in assay [8], 16 µg/mL; in assay [11], 8 µg/mL. Moreover, the “fold change (FC)” value in assay [14], in assay [16] and in assay [17] was 2 each time.
Consider `CCOC(=O)ONC(=O)CC(c1ccccc1)c1ccccc1`, for which the half-inhibitory concentration (IC50) in [1] was found to be 2.24 µM; in [2], 10 µM; in assay [3], 13.1 µM; in assay [9], 1.64 µM. The inhibition in assay [4] was more than 90%; in [6], less than 42%; in [10] it was less than 42%; in [12], more than 90%. Further, the MIC in assay [5] turned out to be 128 µg/mL; in assay [7], 1 µg/mL; in assay [8], 64 µg/mL; in [11], 8 µg/mL. Besides, the “fold change (FC)” value in assay [17] was determined as 2.
As for `O=C(CCc1ccccc1)NOC(=O)OCc1ccccc1`, the half-inhibitory concentration (IC50) in assay [1] came out at 2.18 µM; in assay [2], 3.09 µM; in [3] it was 2.66 µM; in assay [9], 1.69 µM. The inhibition was more than 90% in [4]; more than 90% in [13]; less than 42% in [6]; less than 42% in assay [10]; more than 90% in assay [15]; more than 90% in [12]. Moreover, the MIC in assay [5] stood at 64 µg/mL; in [7], 1 µg/mL; in [8] it was 32 µg/mL; in assay [11], 8 µg/mL. In addition, the “fold change (FC)” value in assay [14], in [16] and in assay [17] was 2 each time.
For the compound `CCOC(=O)ONC(=O)CCC1CCCCC1`, the IC50 in [1] amounted to 3.27 µM; in [2], 3.45 µM; in assay [3] it was 1.29 µM; in assay [9] it was 3.03 µM. In addition, the inhibition in [13] and in assay [15] was more than 90% throughout. Besides, the MIC is 64 µg/mL in [5], 0.063 µg/mL in assay [7], 32 µg/mL in assay [8] and 16 µg/mL in [11]. Besides, the “fold change (FC)” value was found to be 16 in [18], 2 in [14] and 2 in [16].
Regarding `CCCCCOC(=O)ONC(=O)C(CC)c1ccccc1` (stereo not drawn), the IC50 in assay [1] was 35.3 µM; in assay [2], 22.3 µM; in assay [3], 17.5 µM; in [9] it was 23 µM. Further, the MIC was 128 µg/mL in [5], 1 µg/mL in assay [7], 32 µg/mL in assay [8] and 8 µg/mL in [11]. Also, the “fold change (FC)” value in [14], in [16] and in assay [17] was 2 throughout.
Take `O=C(CC(c1ccccc1)c1ccccc1)NOC(=O)OCc1ccccc1`: the IC50 stood at 0.84 µM in [1], 5.45 µM in [2], 1.96 µM in [3] and 0.65 µM in assay [9]. Further, the inhibition was more than 90% in assay [4], less than 42% in [6], less than 42% in assay [10] and more than 90% in [12]. Further, the MIC in assay [5] turned out to be 64 µg/mL; in [7], 0.5 µg/mL; in [8], 64 µg/mL; in assay [11], 8 µg/mL. For the same compound, the “fold change (FC)” value in [18] and in assay [17] was 2 throughout.
Consider `CCOC(=O)ONC(=O)C(CC)c1ccccc1` (stereo not drawn), for which the half-maximal inhibitory concentration (IC50) turned out to be 37.4 µM in assay [1], 32.7 µM in assay [2], 28 µM in [3] and 32.2 µM in assay [9]. The MIC was 128 µg/mL in assay [5], 1 µg/mL in assay [7], 32 µg/mL in [8] and 16 µg/mL in [11]. Moreover, the “fold change (FC)” value in [14] and in assay [16] was 2 throughout.
As for `CCOC(=O)ONC(=O)CCc1ccccc1`, the IC50 amounted to 5.03 µM in [1], 8.5 µM in assay [2], 7.7 µM in [3] and 1.83 µM in [9]. For the same compound, the minimal inhibitory concentration (MIC) was determined as 128 µg/mL in assay [5], 0.5 µg/mL in assay [7], 32 µg/mL in assay [8] and 8 µg/mL in [11]. Also, the “fold change (FC)” value in assay [18], in assay [14], in assay [16] and in [17] was 2 throughout.

(Values after ChEMBL document CHEMBL5518172, “Discovery of hydroxamate as a promising scaffold dually inhibiting metallo- and serine-β-lactamases” (Eur J Med Chem, 2024).)
